Reference: PubChem BioAssay AID328 (DTP/NCI, 2004)
Values joined by “and” are separate entries in the source; they are usually repeats but may differ in a detail not shown here. Equal entries are not always repeated. Toxic doses and inconclusive results are not listed.

Test system: BDF1 mice, P388 leukemia ip, median survival T/C
Test: NCI In Vivo Anticancer Drug Screen. Data for tumor model P388 Leukemia (intraperitoneal) in B6D2F1 (BDF1) mice
Details: endpoint: median survival time, higher = longer survival
How it was run: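 Mice carrying the transplantable tumour receive compound or vehicle. Survival is followed in each arm, and the treated measure is divided by the vehicle measure.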

[1] = dose: 25.0 mg/kg/injection, schedule: Q01DX009 (ip), vehicle: saline with Tween-80
[2] = dose: 50.0 mg/kg/injection, schedule: Q01DX009 (ip), vehicle: saline with Tween-80
[3] = dose: 100.0 mg/kg/injection, schedule: Q01DX009 (ip), vehicle: saline with Tween-80
[4] = dose: 50.0 mg/kg/injection, schedule: Q04DX003 (ip), vehicle: saline with Tween-80
[5] = dose: 100.0 mg/kg/injection, schedule: Q04DX003 (ip), vehicle: saline with Tween-80
[6] = dose: 6.25 mg/kg/injection, schedule: Q01DX009 (ip), vehicle: saline with Tween-80
[7] = dose: 12.5 mg/kg/injection, schedule: Q01DX009 (ip), vehicle: saline with Tween-80
[8] = dose: 200.0 mg/kg/injection, schedule: Q01DX009 (ip), vehicle: saline with Tween-80
[9] = dose: 100.0 mg/kg/injection, schedule: Q04DX003 (ip), vehicle: saline

## CSC1(CC(=O)N2CCCCC2)C(=O)Nc2ccccc21 (configuration not stated)
dose: 50.0 mg/kg/injection, schedule: Q04DX002 (ip), vehicle: saline with Tween-80
  T/C: 95 % of control
dose: 100.0 mg/kg/injection, schedule: Q04DX002 (ip), vehicle: saline with Tween-80
  T/C: 101 % of control
dose: 200.0 mg/kg/injection, schedule: Q04DX002 (ip), vehicle: saline with Tween-80
  T/C: 95 % of control

## CCCCCCC(=O)O[C@H]1CC[C@H]2[C@@H]3CCC4=CC(=O)CC[C@]4(C)[C@H]3CC[C@]12C
dose: 25.0 mg/kg/injection, schedule: Q01DX009 (ip), vehicle: other
  T/C: 120 % of control
dose: 25.0 mg/kg/injection, schedule: Q04DX003 (ip), vehicle: other
  T/C: 100 % of control
dose: 50.0 mg/kg/injection, schedule: Q01DX009 (ip), vehicle: other
  T/C: 100 % of control
dose: 50.0 mg/kg/injection, schedule: Q04DX003 (ip), vehicle: other
  T/C: 100 % of control
dose: 66.0 mg/kg/injection, schedule: Q01DX009 (ip), vehicle: other
  T/C: 100 % of control
dose: 100.0 mg/kg/injection, schedule: Q01DX009 (ip), vehicle: other
  T/C: 100 % of control
dose: 100.0 mg/kg/injection, schedule: Q04DX003 (ip), vehicle: other
  T/C: 100 % of control
dose: 150.0 mg/kg/injection, schedule: Q01DX009 (ip), vehicle: other
  T/C: 90 % of control

## Cc1nc(C)c(Br)s1
[1]
  T/C: 100 % of control
[2]
  T/C: 100 % of control
[3]
  T/C: 107 % of control

## CCN(C(C)C)C(C)C
dose: 25.0 mg/kg/injection, schedule: Q04DX003 (ip), vehicle: saline with Tween-80
  T/C: 100 % of control
[4]
  T/C: 100 % of control
[5]
  T/C: 100 % of control

## O=c1[nH]cnc2[nH]ccc12
[6]
  T/C: 99 % of control
[7]
  T/C: 103 % of control
[1]
  T/C: 96 % of control
[2]
  T/C: 99 % of control

## COc1ccc(C(=O)N/N=C(\C)[C@]2(O)Cc3c(O)c4c(c(O)c3[C@@H](OC3CC(N)C(O)C(C)O3)C2)C(=O)c2c(OC)cccc2C4=O)cc1 (some centres not stated)
dose: 0.25 mg/kg/injection, schedule: Q01DX009 (ip), vehicle: water
  T/C: 117 % of control and 123 % of control
dose: 1.0 mg/kg/injection, schedule: Q01DX009 (ip), vehicle: water
  T/C: 156 % of control and 212 % of control
dose: 2.0 mg/kg/injection, schedule: Q01DX009 (ip), vehicle: water
  T/C: 275 % of control and 156 % of control
dose: 4.0 mg/kg/injection, schedule: Q01DX009 (ip), vehicle: water
  T/C: 244 % of control and 107 % of control
dose: 8.0 mg/kg/injection, schedule: Q01DX009 (ip), vehicle: water
  T/C: 107 % of control

## N=Cc1c(O)n(-c2ccccc2)c(=O)[nH]c1=O
[3]
  T/C: 112 % of control
[8]
  T/C: 100 % of control
dose: 400.0 mg/kg/injection, schedule: Q01DX009 (ip), vehicle: saline with Tween-80
  T/C: 104 % of control

## [Au].c1ccc(-c2nn[nH]n2)cc1.c1ccc(P(c2ccccc2)c2ccccc2)cc1
[6]
  T/C: 104 % of control
[7]
  T/C: 106 % of control
[1]
  T/C: 123 % of control

## CCCCCCCCOP(=O)(N1CC1C)N1CC1C (configuration not stated)
[9]
  T/C: 154 % of control

## COc1ccc2[nH]c3c(C)c4cc[n+](CCCCCCCC[n+]5ccc6c(C)c7[nH]c8ccc(OC)cc8c7c(C)c6c5)cc4c(C)c3c2c1
dose: 6.25 mg/kg/injection, schedule: Q04DX003 (ip), vehicle: other
  T/C: 121 % of control

## O=c1[nH]c(=O)n([C@H]2CCCO2)cc1F
dose: 23.0 mg/kg/injection, schedule: Q01DX009 (ip), vehicle: water
  T/C: 89 % of control
dose: 39.0 mg/kg/injection, schedule: Q01DX009 (ip), vehicle: water
  T/C: 87 % of control
dose: 44.0 mg/kg/injection, schedule: Q01DX009 (ip), vehicle: Klucel (hydroxypropylcellulose) (HPC)
  T/C: 104 % of control and 108 % of control and 109 % of control
dose: 59.0 mg/kg/injection, schedule: Q01DX009 (ip), vehicle: Klucel (hydroxypropylcellulose) (HPC)
  T/C: 100 % of control and 107 % of control and 111 % of control
dose: 65.0 mg/kg/injection, schedule: Q01DX009 (ip), vehicle: water
  T/C: 99 % of control
dose: 65.0 mg/kg/injection, schedule: Q04DX003 (ip), vehicle: water
  T/C: 89 % of control
dose: 75.0 mg/kg/injection, schedule: Q04DX003 (ip), vehicle: other
  T/C: 118 % of control
dose: 90.0 mg/kg/injection, schedule: Q01DX009 (ip), vehicle: Klucel (hydroxypropylcellulose) (HPC)
  T/C: 87 % of control and 104 % of control and 112 % of control
dose: 108.0 mg/kg/injection, schedule: Q01DX009 (ip), vehicle: water
  T/C: 101 % of control
dose: 108.0 mg/kg/injection, schedule: Q04DX003 (ip), vehicle: water
  T/C: 98 % of control
dose: 134.0 mg/kg/injection, schedule: Q01DX009 (ip), vehicle: Klucel (hydroxypropylcellulose) (HPC)
  T/C: 108 % of control and 120 % of control (2×)
dose: 142.0 mg/kg/injection, schedule: Q04DX003 (ip), vehicle: Klucel (hydroxypropylcellulose) (HPC)
  T/C: 103 % of control and 109 % of control and 110 % of control
dose: 150.0 mg/kg/injection, schedule: Q04DX003 (ip), vehicle: other
  T/C: 118 % of control
dose: 180.0 mg/kg/injection, schedule: Q01DX009 (ip), vehicle: water
  T/C: 89 % of control
dose: 180.0 mg/kg/injection, schedule: Q04DX003 (ip), vehicle: water
  T/C: 96 % of control
dose: 189.0 mg/kg/injection, schedule: Q04DX003 (ip), vehicle: Klucel (hydroxypropylcellulose) (HPC)
  T/C: 105 % of control and 113 % of control and 117 % of control
dose: 201.0 mg/kg/injection, schedule: Q01DX009 (ip), vehicle: Klucel (hydroxypropylcellulose) (HPC)
  T/C: 102 % of control and 111 % of control
dose: 288.0 mg/kg/injection, schedule: Q04DX003 (ip), vehicle: Klucel (hydroxypropylcellulose) (HPC)
  T/C: 109 % of control and 112 % of control and 118 % of control
dose: 300.0 mg/kg/injection, schedule: Q04DX003 (ip), vehicle: other
  T/C: 118 % of control
dose: 300.0 mg/kg/injection, schedule: Q04DX003 (ip), vehicle: water
  T/C: 100 % of control
dose: 316.0 mg/kg/injection, schedule: Q01DX001 (ip), vehicle: Klucel (hydroxypropylcellulose) (HPC)
  T/C: 104 % of control (2×) and 109 % of control
dose: 421.0 mg/kg/injection, schedule: Q01DX001 (ip), vehicle: Klucel (hydroxypropylcellulose) (HPC)
  T/C: 109 % of control and 111 % of control and 123 % of control
dose: 430.0 mg/kg/injection, schedule: Q04DX003 (ip), vehicle: Klucel (hydroxypropylcellulose) (HPC)
  T/C: 109 % of control and 110 % of control and 113 % of control
dose: 500.0 mg/kg/injection, schedule: Q04DX003 (ip), vehicle: water
  T/C: 92 % of control
dose: 600.0 mg/kg/injection, schedule: Q04DX003 (ip), vehicle: other
  T/C: 95 % of control
dose: 641.0 mg/kg/injection, schedule: Q01DX001 (ip), vehicle: Klucel (hydroxypropylcellulose) (HPC)
  T/C: 104 % of control and 118 % of control and 124 % of control
dose: 645.0 mg/kg/injection, schedule: Q04DX003 (ip), vehicle: Klucel (hydroxypropylcellulose) (HPC)
  T/C: 111 % of control and 114 % of control
dose: 957.0 mg/kg/injection, schedule: Q01DX001 (ip), vehicle: Klucel (hydroxypropylcellulose) (HPC)
  T/C: 104 % of control and 123 % of control
dose: 1200.0 mg/kg/injection, schedule: Q04DX003 (ip), vehicle: other
  T/C: 90 % of control
dose: 1436.0 mg/kg/injection, schedule: Q01DX001 (ip), vehicle: Klucel (hydroxypropylcellulose) (HPC)
  T/C: 105 % of control and 117 % of control

## Brc1ccc(C[N+]23CN4CN(CN(C4)C2)C3)cc1
dose: 100.0 mg/kg/injection, schedule: Q01DX009 (ip), vehicle: saline
  T/C: 115 % of control
[9]
  T/C: 118 % of control
dose: 132.0 mg/kg/injection, schedule: Q01DX009 (ip), vehicle: saline with Tween-80
  T/C: 107 % of control and 108 % of control
dose: 200.0 mg/kg/injection, schedule: Q01DX009 (ip), vehicle: saline
  T/C: 90 % of control
dose: 200.0 mg/kg/injection, schedule: Q04DX003 (ip), vehicle: saline
  T/C: 122 % of control

## Cc1ccc(C(=O)C2CC2)cc1C
dose: 33.0 mg/kg/injection, schedule: Q01DX009 (ip), vehicle: saline with Tween-80
  T/C: 96 % of control
[2]
  T/C: 103 % of control
[4]
  T/C: 104 % of control
dose: 75.0 mg/kg/injection, schedule: Q01DX009 (ip), vehicle: saline with Tween-80
  T/C: 111 % of control
[5]
  T/C: 112 % of control
[8]
  T/C: 120 % of control
dose: 200.0 mg/kg/injection, schedule: Q04DX003 (ip), vehicle: saline with Tween-80
  T/C: 112 % of control

## O=C(O)CC[n+]1c(/C=C/c2cc(Br)c(O)c(Br)c2)sc2ccccc21
dose: 50.0 mg/kg/injection, schedule: Q04DX003 (ip), vehicle: saline sonified
  T/C: 100 % of control
dose: 100.0 mg/kg/injection, schedule: Q04DX003 (ip), vehicle: saline sonified
  T/C: 100 % of control
dose: 200.0 mg/kg/injection, schedule: Q04DX003 (ip), vehicle: saline sonified
  T/C: 100 % of control

## Cc1ccc(CNc2ccc([N+](=O)[O-])cc2)cc1
[2]
  T/C: 104 % of control
[3]
  T/C: 90 % of control
[8]
  T/C: 104 % of control
